Data on one molecule can be found in patent US6645513B2, “Treatment of skin with adenosine or adenosine analog” (University of Massachusetts, priority 1998, dated 2003).

Common to all, as to type: cell-based
Assay [1] deals with human lung fibroblasts (IMR-90). Briefly: [3H]thymidine incorporation in human lung fibroblasts (IMR-90). The note with it: IMR-90 lung fibroblasts. As to the method:
FIGS. 1A and 1B are histograms showing the effect of adenosine on [^3H]thymidine incorporation in cultures of normal human skin (FIG. 1A) and lung fibroblasts (FIG. 1B). After incubation in serum-free medium for 24 hours, cells were exposed to 10^−4 M adenosine for 18 hours. Medium was replaced with serum-free medium without adenosine, and [^3H]thymidine was added. Results are expressed as percent [^3H]thymidine incorporation compared to control cultures without adenosine and are means ±SEM for 4-5 experiments.
(§1) Human skin fibroblasts and human lung fibroblasts were supplied by the N.I.A. Aging Culture Repository Center (Camden, N.J.). For skin fibroblasts, primary cultures had been initiated from explants obtained from a 3 mm punch biopsy of the mesial aspect of the upper left arm. Human lung fibroblasts (IMR-90) were established from a […] normal […] fetus.
Cells were grown in Eagle's minimal essential medium (MEM) supplemented with 10% fetal bovine serum (FBS), 100 U/ml penicillin and […] streptomycin in a 37° C., 5% CO2/95% air environment. […]
As an index of DNA synthesis incorporation of [^3H]thymidine was measured as described in Ethier et al., Am. […] The radioactivity of this fraction was determined by standard liquid scintillation spectrometric techniques.
Incorporation of [^3H] thymidine was expressed as counts per minute (cpm) of ^3H per culture. […]
On the technique in general: Incorporation of labelled thymidine or its analogues reports DNA synthesis.

The subject of assay [2] is human skin fibroblasts. Briefly: Determination of cell size by forward light scatter (FACS). The note with it: for % increase (cell size) / Relative Size (FLS): adenosine 10^-4 M, 18 h; for increase of cell size: 10^-4 M. As to the method: Human fibroblasts in MEM 10% FBS were seeded into 25 cm^2 culture flasks at a density of 1×10^4 cells/cm^2. When the cells had grown to approximately 80% confluence the culture medium was removed and the cells were incubated in serum-free MEM for 24 hours. Adenosine or vehicle (MEM) was added for 18 hours and cells were then washed twice with cold (4° C.) HBSS. Cells were removed with 0.25% trypsin in calcium-and magnesium-free MEM and diluted in cold (4° C.) HBSS for measurement of relative cell size with a fluorescence-activated cell sorter (FACS; Becton Dickinson Vantage). Cell size was determined by forward light scatter on a minimum of 1×10^4 cells per experiment. The effect of adenosine on cell size was determined on human skin fibroblasts from young and aged donors by measuring forward light scatter in a FACS analyzer. Cultures made quiescent by serum removal were exposed to adenosine for 18 hours, removed by trypsinization, and diluted in 4° C. HBSS. A minimum of 1×10^4 cells were measured for each experiment. Values are mean ±SEM for relative cell size determined by forward light scatter (FLS) in a fluorescence-activated cell sorter, and n=number of cells measured.

Assay [3] relates to human skin fibroblasts. As to the kind of experiment: [3H]phenylalanine incorporation (index of protein synthesis) in human skin fibroblasts. The note with it: 10^-4 M, 48 h. As to the method: FIGS. 2A and 2B are histograms showing concentration responses of adenosine-stimulated protein synthesis in human skin fibroblasts from a young (FIG. 2A) and aged (FIG. 2B) donor. Cells were grown to 75% confluence. Medium was then replaced with serum-free medium with or without adenosine. After 48 hours, [^3H]phenylalanine incorporation was determined as described. Results are expressed as %[^3H]phenylalanine incorporation compared to control cultures without adenosine and are means ±SEM for 6-25 experiments. […] Incorporation of [^3H]phenylalanine was measured as an index of protein synthesis. Human skin fibroblasts were seeded into 24-well culture plates in MEM containing 10% FBS. When cells had grown to approximately 75% confluence the culture medium was replaced with serum-free MEM with or without adenosine. After 48 hours, 2 μCi/ml [^3H]phenylalanine was added to the cultures. Unlabeled phenylalanine (0.36 mM) was also added to equalize concentrations of intracellular and extracellular phenylalanine. […] The radioactivity of this fraction was determined by standard liquid scintillation spectrometric techniques. Incorporation of [^3H] phenylalanine was expressed as cpm of ^3H per culture well and data in each experiment were derived from six identically treated wells.

The test system of assay [4] is human skin fibroblasts. Briefly: [3H]thymidine incorporation (index of DNA synthesis) in human skin fibroblasts. As to the method: as §1
Cells were grown in Eagle's minimal essential medium (MEM) supplemented with 10% fetal bovine serum (FBS), 100 U/ml penicillin and […] streptomycin in a 37° C., 5% CO2/95% air environment. After reaching confluence, cells were subcultivated with 0.25% trypsin in MEM with no added Ca^2+ or Mg^2+.
As an index of DNA synthesis incorporation of [^3H]thymidine was measured as described in Ethier et al., Am. J. Physiol. 272:H1470-79 (1997). Confluent monolayers of human skin fibroblasts in MEM plus 10% FBS were seeded into 16 mm diameter culture wells (24-well plates) at a density of 1×10^4 cells/cm^2. Cells were grown at 37° C. under standard culture conditions (5% CO2-95% air) until they were approximately 75% confluent. Medium was then removed and the cells were made “serum-free” by incubation in MEM with no FBS for 24 hours. Adenosine or vehicle (MEM) was added for an additional 18 hours. This medium was then replaced with fresh MEM, and the cells were pulsed with […] [^3H] thymidine (6.7 Ci/mmol). After a 2 hour incubation period, the medium was discarded and the cells were rinsed twice with cold (4° C.) Hank's balanced salt solution (HBSS) and incubated for 5 minutes with 0.5 ml cold 10% (w/v) trichloroacetic acid (TCA). The wells were then rinsed with 8% TCA and the TCA-insoluble material was solubilized with 0.5 ml of a solution of 0.2M NaOH and 0.2% sodium […] sulfate (SDS). The radioactivity of this fraction was determined by standard liquid scintillation spectrometric techniques.
Incorporation of [^3H] thymidine was expressed as counts per minute (cpm) of ^3H per culture. Data in each experiment was derived from 4 identically treated wells.

Where “and” joins values, the source holds several entries; their conditions need not be identical. Identical values can stand only once. Marks after values point to notes of the source that are not given here.

In the case of `Nc1ncnc2c1ncn2[C@@H]1O[C@H](CO)[C@@H](O)[C@H]1O` [adenosine], the “effect on [3H]thymidine incorporation” value in assay [1] (adenosine 10^-4 M (FIG. 1B)) was “no effect”. Moreover, the “stimulation of [3H]thymidine incorporation” value in assay [1] (adenosine 10^-7 M to 10^-3 M (data not shown)) was “failed to stimulate”. Further, the “% increase (cell size)” value in the assay on human skin fibroblasts [2] (aged donor, experiment 1) was 2.7* %; in the assay with human skin fibroblasts [2] (aged donor, experiment 2) it was 4.3* %; in the assay with human skin fibroblasts [2] (aged donor, experiment 3), 4.9* %; with human skin fibroblasts [2] (young donor, experiment 1) it was 0.4%; with human skin fibroblasts [2] (young donor, experiment 2), 2.2* %; in the assay with human skin fibroblasts [2] (young donor, experiment 3), 1.8* %. The “Relative Size (FLS)” value in the assay on human skin fibroblasts [2] (aged donor, experiment 1) came out at 342 ± 0.75; with human skin fibroblasts [2] (aged donor, experiment 2), 337 ± 0.96; in the assay with human skin fibroblasts [2] (aged donor, experiment 3), 321 ± 0.81; with human skin fibroblasts [2] (young donor, experiment 1) it was 526 ± 0.55; in the assay with human skin fibroblasts [2] (young donor, experiment 2) it was 326 ± 1.16; in the assay with human skin fibroblasts [2] (young donor, experiment 3) it was 348 ± 0.95. The “increase of cell size” value with human skin fibroblasts [2] (skin fibroblasts from person (AG073060A), two of three experiments) is 1.8% and 2.2%; in the assay with human skin fibroblasts [2] (skin fibroblasts from person three (AG11730), 3 of 3 experiments), 2.7-4.9%. The “increase of protein synthesis ([3H]phenylalanine incorporation)” value in the assay on human skin fibroblasts [3] (skin fibroblasts from person (AG073060A), n=25) stood at 13±4%; with human skin fibroblasts [3] (skin fibroblasts from person three (AG11730), n=17), 13±6%. Further, the “increase of [3H]thymidine incorporation” value was determined as 43±9% in the assay on human skin fibroblasts [4] (human fibroblasts AG607720B made quiescent by serum removal, 10^-4 M adenosine, five studies (FIG. 1A)); 53±31% in the assay on human skin fibroblasts [4] (skin fibroblasts from person one, 10^-4 M); 54±22% in the assay on human skin fibroblasts [4] (skin fibroblasts from person three, 10^-4 M). Moreover, in the assay with human skin fibroblasts [4] (skin fibroblasts from person (AG07306A), 10^-4 M, n=6), the “peak stimulation of [3H]thymidine incorporation” value is reported as 93±20%. Also, the “effect on DNA synthesis ([3H]thymidine incorporation)” value in the assay on human skin fibroblasts [4] (skin fibroblasts from person two, 10^-4 M) is listed as “no effect”.
